The results in this text go back to patent publication US9034897B2, “Indanyl-substituted 4,5,6,7-tetrahydro-1H-pyrazolo[4,3-C]pyridines, their use as medicament, and pharmaceutical preparations comprising them” (SANOFI, priority 2011, dated 2015).

This experiment deals with Human TASK-1 channels (Homo sapiens (Human), UniProt O14649). In words: Activity on the TASK-1 channel in Xenopus oocytes (two-microelectrode voltage clamp). The experiment is classed as cell-based. Conditions: for inhibition at 5 µM: percentage inhibition of TASK-1 control current, Xenopus oocytes; for IC50: human TASK-1 expressed in Xenopus oocytes, currents during 500 ms pulses to 40 mV, room temperature. How it is done: Determination of the activity on the TASK-1 channel in Xenopus oocytes:
Human TASK-1 channels were expressed in Xenopus oocytes. For this purpose, oocytes were isolated from Xenopus laevis and defolliculated. Subsequently, TASK-1-encoding RNA synthesized in vitro was injected into oocytes. After two days of TASK-1 protein expression, TASK-1 currents were measured by two-microelectrode voltage clamp. Data were acquired and analyzed using a TEC-10cx amplifier (NPI Electronic, Tamm, Germany) connected to an ITC-16 interface (Instrutech Corp., Long Island, USA) and Pulse software (HEKA Elektronik, Lambrecht, Germany). Oocytes were clamped to −90 mV and TASK-1 mediated currents were measured during 500 ms voltage pulses to 40 mV. Oocytes were continuously superfused with ND96 buffer containing: NaCl 96 mM, KCl2 mM, CaCl2 1.8 mM, MgCl2 1 mM, HEPES 5 mM (pH adjusted to 7.4 with NaOH). All experiments were performed at room temperature.
Test substances were consecutively added to the bath solution at rising concentrations. Compound effects were calculated as the percentage inhibition of
TASK-1 control current before compound application. IC50 values were obtained by fitting the data to the general dose-response equation.

Molecules are shown by their SMILES.

Sequence of Human TASK-1 channels (O14649 whole entry): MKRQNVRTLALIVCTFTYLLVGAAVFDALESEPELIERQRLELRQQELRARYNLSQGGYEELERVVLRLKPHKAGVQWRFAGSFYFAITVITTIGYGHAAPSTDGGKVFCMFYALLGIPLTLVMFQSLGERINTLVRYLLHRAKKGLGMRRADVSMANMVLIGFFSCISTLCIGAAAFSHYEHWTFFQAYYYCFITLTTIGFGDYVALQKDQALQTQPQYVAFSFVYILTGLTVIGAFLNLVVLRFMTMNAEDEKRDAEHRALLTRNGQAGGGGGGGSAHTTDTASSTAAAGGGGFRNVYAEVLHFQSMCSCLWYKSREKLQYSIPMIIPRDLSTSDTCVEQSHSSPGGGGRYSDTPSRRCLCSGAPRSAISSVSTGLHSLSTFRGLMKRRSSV

For the compound `CCc1cc(F)cc2c1C[C@@H](O)[C@@H]2n1nc(-c2cccc(C#N)c2)c2c1CCN(C(C)=O)C2` [Example 19b, 3-[5-Acetyl-1-((1R,2R)-4-ethyl-6-fluoro-2-hydroxy-indan-1-yl)-4,5,6,7-tetrahydro-1H-pyrazolo[4,3-c]pyridin-3-yl]-benzonitrile], the inhibition at 5 µM amounted to 82%.
The compound `CO[C@@H]1Cc2c(F)cc(F)cc2[C@H]1n1nc(-c2ccc(F)cc2)c2c1CCN(C(C)=O)C2` [Example 16b, 1-[1-((1R,2R)-4,6-Difluoro-2-methoxy-indan-1-yl)-3-(4-fluoro-phenyl)-1,4,6,7-tetrahydro-pyrazolo[4,3-c]pyridin-5-yl]-ethanone] yielded an IC50 of 1.16 µM.
In the case of `COc1ccc(F)c(-c2nn([C@@H]3c4cc(F)cc(F)c4C[C@H]3O)c3c2CN(C(C)=O)CC3)c1` [Example 11c, 1-[1-((1R,2R)-4,6-Difluoro-2-hydroxy-indan-1-yl)-3-(2-fluoro-5-methoxy-phenyl)-1,4,6,7-tetrahydro-pyrazolo[4,3-c]pyridin-5-yl]-ethanone], the IC50 came out at 0.204 µM. Against the preceding compound, the IC50 is about 5.7-fold lower.
For the compound `CC(=O)N1CCc2c(c(-c3cccc(C(F)(F)F)c3)nn2[C@H]2c3cc(F)cc(F)c3C[C@@H]2O)C1` [Example 11h, 1-[1-((1S,2S)-4,6-Difluoro-2-hydroxy-indan-1-yl)-3-(3-trifluoromethyl-phenyl)-1,4,6,7-tetrahydro-pyrazolo[4,3-c]pyridin-5-yl]-ethanone], the 50% inhibitory concentration (IC50) was determined as 0.37 µM.
Compound `NC(=O)c1cccc(-c2nn([C@@H]3c4cc(F)cc(F)c4C[C@H]3O)c3c2CN(CCC(F)(F)F)CC3)c1` [Example 18h, 3-[1-((1R,2R)-4,6-Difluoro-2-hydroxy-indan-1-yl)-5-(3,3,3-trifluoro-propyl)-4,5,6,7-tetrahydro-1H-pyrazolo[4,3-c]pyridin-3-yl]-benzamide] had an inhibition at 5 µM of 39%.
`CC(=O)N1CCc2c(c(-c3cccc(C#N)c3)nn2[C@@H]2c3cc(F)cc(F)c3C[C@H]2O)C1` [Example 11t, 3-[5-Acetyl-1-((1R,2R)-4,6-difluoro-2-hydroxy-indan-1-yl)-4,5,6,7-tetrahydro-1H-pyrazolo[4,3-c]pyridin-3-yl]-benzonitrile]: the half-maximal inhibitory concentration (IC50) came out at 0.881 µM. In other words, the sub-micromolar range.
In the case of `CCCN1CCc2c(c(-c3ccc(F)cc3)nn2[C@@H]2c3cc(F)cc(F)c3C[C@H]2O)C1` [Example 18f, (1R,2R)-4,6-Difluoro-1-[3-(4-fluoro-phenyl)-5-propyl-4,5,6,7-tetrahydro-pyrazolo[4,3-c]pyridin-1-yl]-indan-2-ol], the inhibition at 5 µM worked out at 67%.
Regarding `CCC(=O)N1CCc2c(c(-c3cccc(C#N)c3)nn2[C@@H]2c3cc(F)cc(F)c3C[C@H]2O)C1` [Example 14a, 3-[1-((1R,2R)-4,6-Difluoro-2-hydroxy-indan-1-yl)-5-propionyl-4,5,6,7-tetrahydro-1H-pyrazolo[4,3-c]pyridin-3-yl]-benzonitrile], the 50% inhibitory concentration (IC50) worked out at 0.07 µM.
On the same count and under the same terms, in the case of `CC(=O)N1CCc2c(c(-c3ccc(F)cc3)nn2[C@@H]2c3cc(Cl)c(Cl)cc3C[C@H]2O)C1` (racemic) [Example 11u, racemic 1-[1-((1R,2R)-5,6-Dichloro-2-hydroxy-indan-1-yl)-3-(4-fluoro-phenyl)-1,4,6,7-tetrahydro-pyrazolo[4,3-c]pyridin-5-yl]-ethanone] it was 1.01 µM.
As to `CC(=O)N1CCc2c(c(-c3cccc(C(F)(F)F)n3)nn2[C@@H]2c3cc(F)cc(F)c3C[C@H]2O)C1` [Example 11e, 1-[1-((1R,2R)-4,6-Difluoro-2-hydroxy-indan-1-yl)-3-(6-trifluoromethyl-pyridin-2-yl)-1,4,6,7-tetrahydro-pyrazolo[4,3-c]pyridin-5-yl]-ethanone], the half-maximal inhibitory concentration (IC50) turned out to be 0.239 µM.
Turning to `CC(=O)N1CCc2c(c(-c3ccc(C)cc3)nn2[C@@H]2c3cc(F)cc(F)c3C[C@H]2O)C1` [Example 11x, 1-[1-((1R,2R)-4,6-Difluoro-2-hydroxy-indan-1-yl)-3-p-tolyl-1,4,6,7-tetrahydro-pyrazolo[4,3-c]pyridin-5-yl]-ethanone], the midpoint of inhibition, the IC50, lay at 1.52 µM.
The same measure, in the same setting: in the case of `CC(C)N1CCc2c(c(-c3ccc(F)cc3)nn2[C@@H]2c3cc(F)cc(F)c3C[C@H]2O)C1` [Example 18b, (1R,2R)-4,6-Difluoro-1-[3-(4-fluoro-phenyl)-5-isopropyl-4,5,6,7-tetrahydro-pyrazolo[4,3-c]pyridin-1-yl]-indan-2-ol] it was 8.19 µM.
Compound `CC(=O)N1CCc2c(c(-c3ccc(F)c(C(F)(F)F)c3)nn2[C@H]2c3cc(F)cc(F)c3C[C@]2(C)O)C1` (racemic) [Example 11i, racemic 1-[1-((1S,2S)-4,6-Difluoro-2-hydroxy-2-methyl-indan-1-yl)-3-(4-fluoro-3-trifluoromethyl-phenyl)-1,4,6,7-tetrahydro-pyrazolo[4,3-c]pyridin-5-yl]-ethanone] came in with a concentration for half-maximal inhibition (IC50) of 0.375 µM.
With `N#Cc1cccc(-c2nn([C@@H]3c4cc(F)cc(F)c4C[C@H]3O)c3c2CN(C(=O)C2CC2)CC3)c1` [Example 14b, 3-[5-Cyclopropanecarbonyl-1-((1R,2R)-4,6-difluoro-2-hydroxy-indan-1-yl)-4,5,6,7-tetrahydro-1H-pyrazolo[4,3-c]pyridin-3-yl]-benzonitrile], it took 0.0831 µM to reach half-maximal inhibition (IC50).
As for `CCC(=O)O[C@@H]1Cc2c(F)cc(F)cc2[C@H]1n1nc(-c2cccc(C#N)c2)c2c1CCN(C(=O)CC)C2` [Example 15a, Propionic acid (1R,2R)-1-[3-(3-cyano-phenyl)-5-propionyl-4,5,6,7-tetrahydro-pyrazolo[4,3-c]pyridin-1-yl]-4,6-difluoro-indan-2-yl ester], the inhibition at 5 µM was 51%.
Consider `CC(=O)N1CCc2c(c(-c3cccc(OC(F)(F)F)c3)nn2[C@H]2c3cc(F)cc(F)c3C[C@@H]2O)C1` [Example 11r, 1-[1-((1S,2S)-4,6-Difluoro-2-hydroxy-indan-1-yl)-3-(3-trifluoromethoxy-phenyl)-1,4,6,7-tetrahydro-pyrazolo[4,3-c]pyridin-5-yl]-ethanone], for which the IC50 came out at 0.789 µM.
Turning to `CC(=O)N1CCc2c(c(-c3ccc(F)cc3)nn2[C@H]2CCc3ccccc32)C1` [Example 12b, 1-[(S)-3-(4-Fluoro-phenyl)-1-indan-1-yl-1,4,6,7-tetrahydro-pyrazolo[4,3-c]pyridin-5-yl]-ethanone], half-maximal inhibition (IC50) was put at 0.479 µM. This IC50 is about 1.6-fold lower than that of the compound before.
Consider `N#Cc1cccc(-c2nn([C@@H]3c4cc(F)cc(F)c4C[C@H]3O)c3c2CN(CCC(F)(F)F)CC3)c1` [Example 18c, 3-[1-((1R,2R)-4,6-Difluoro-2-hydroxy-indan-1-yl)-5-(3,3,3-trifluoro-propyl)-4,5,6,7-tetrahydro-1H-pyrazolo[4,3-c]pyridin-3-yl]-benzonitrile], for which testing at 5 µM gave an inhibition of 91%.
`CC(=O)N1CCc2c(c(-c3cccc(Cl)c3)nn2[C@H]2c3cc(F)cc(F)c3C[C@@H]2O)C1` [Example 11b, 1-[3-(3-Chloro-phenyl)-1-((1S,2S)-4,6-difluoro-2-hydroxy-indan-1-yl)-1,4,6,7-tetrahydro-pyrazolo[4,3-c]pyridin-5-yl]-ethanone]: 0.19 µM corresponded to half-maximal inhibition (IC50).
The same measure, in the same setting: in the case of `CC(=O)N1CCc2c(c(-c3cccc(C#N)c3)nn2[C@@H]2c3cc(F)cc(C)c3C[C@H]2O)C1` [Example 19a, 3-[5-Acetyl-1-((1R,2R)-6-fluoro-2-hydroxy-4-methyl-indan-1-yl)-4,5,6,7-tetrahydro-1H-pyrazolo[4,3-c]pyridin-3-yl]-benzonitrile] it was 0.231 µM; in that of `CC(=O)N1CCc2c(c(-c3cccc(C#N)c3)nn2[C@@H]2c3cc(F)cc(C4CC4)c3C[C@H]2O)C1` [Example 20a, 3-[5-Acetyl-1-((1R,2R)-4-cyclopropyl-6-fluoro-2-hydroxy-indan-1-yl)-4,5,6,7-tetrahydro-1H-pyrazolo[4,3-c]pyridin-3-yl]-benzonitrile], 0.5 µM.
`CC(C)(C)C(=O)N1CCc2c(c(-c3cccc(C#N)c3)nn2[C@@H]2c3cc(F)cc(F)c3C[C@H]2O)C1` [Example 14d, 3-[1-((1R,2R)-4,6-Difluoro-2-hydroxy-indan-1-yl)-5-(2,2-dimethyl-propionyl)-4,5,6,7-tetrahydro-1H-pyrazolo[4,3-c]pyridin-3-yl]-benzonitrile] registered an inhibition at 5 µM of 94%.
For the compound `COc1ccc(-c2nn([C@@H]3c4cc(F)cc(F)c4C[C@H]3O)c3c2CN(C(C)=O)CC3)cc1` [Example 11ad, 1-[1-((1R,2R)-4,6-Difluoro-2-hydroxy-indan-1-yl)-3-(4-methoxy-phenyl)-1,4,6,7-tetrahydro-pyrazolo[4,3-c]pyridin-5-yl]-ethanone], 6.89 µM corresponded to half-maximal inhibition (IC50).
On the same count and under the same terms, in the case of `CC(=O)N1CCc2c(c(-c3ccc(F)c(C#N)c3)nn2[C@@H]2c3cc(F)cc(F)c3C[C@H]2O)C1` [Example 11z, 5-[5-Acetyl-1-((1R,2R)-4,6-difluoro-2-hydroxy-indan-1-yl)-4,5,6,7-tetrahydro-1H-pyrazolo[4,3-c]pyridin-3-yl]-2-fluoro-benzonitrile] it was 2.13 µM.
Still for that read-out and setting: in the case of `CC(=O)N1CCc2c(c(-c3ccc(F)cc3)nn2[C@@H]2c3cc(Cl)ccc3C[C@H]2O)C1` [Example 11s, 1-[1-((1R,2R)-6-Chloro-2-hydroxy-indan-1-yl)-3-(4-fluoro-phenyl)-1,4,6,7-tetrahydro-pyrazolo[4,3-c]pyridin-5-yl]-ethanone] it was 0.804 µM.
Regarding `COc1cc(-c2nn([C@@H]3c4cc(F)cc(F)c4C[C@H]3O)c3c2CN(C(C)=O)CC3)ccc1F` [Example 11y, 1-[1-((1R,2R)-4,6-Difluoro-2-hydroxy-indan-1-yl)-3-(4-fluoro-3-methoxy-phenyl)-1,4,6,7-tetrahydro-pyrazolo[4,3-c]pyridin-5-yl]-ethanone], the concentration for half-maximal inhibition (IC50) was found to be 1.92 µM.
